{"source": "ChEMBL document CHEMBL4680338", "about": "“Sinomenine inhibits hypoxia induced breast cancer side population cells metastasis by PI3K/Akt/mTOR pathway” (Bioorg Med Chem, 2021)", "key": {"[1]": {"system": "MCF7", "assay": "Cytotoxicity against human MCF7 side population cells assessed as reduction in cell viability at 2 to 4 mM measured after 24 hrs under normoxia condition by CCK-8 assay", "type": "functional, cell-based", "settings": "dose 2-4 mM"}, "[2]": {"system": "MDA-MB-231", "assay": "Inhibition of hypoxia-induced activation of PI3K/Akt/mTOR signaling in human MDA-MB-231 side population cells assessed as decrease in phosphorylated mTOR level at 0.25 to 1 mM measured after 24 hrs by Western blot analysis", "settings": "dose 0.25-1 mM"}, "[3]": {"system": "MCF7", "assay": "Cytotoxicity against human MCF7 cells assessed as reduction in cell viability at 1 to 4 mM measured after 24 hrs under normoxia condition by CCK-8 assay", "type": "functional, cell-based", "settings": "dose 1-4 mM"}, "[4]": {"system": "MDA-MB-231", "assay": "Suppression of hypoxia-induced upregulation of MMP2 expression in human MDA-MB-231 side population cells at 0.25 to 1 mM by Western blot analysis", "type": "functional", "settings": "dose 0.25-1 mM"}, "[5]": {"system": "MDA-MB-231", "assay": "Suppression of hypoxia-induced upregulation of MMP2 expression in human MDA-MB-231 cells at 0.25 to 1 mM by Western blot analysis", "type": "functional, cell-based", "settings": "dose 0.25-1 mM"}, "[6]": {"system": "MDA-MB-231", "assay": "Cytotoxicity against human MDA-MB-231 side population cells assessed as reduction in cell viability at 0.25 to 1 mM measured after 24 hrs under hypoxia condition by CCK-8 assay", "type": "functional, cell-based", "settings": "dose 0.25-1 mM"}, "[7]": {"system": "MDA-MB-231", "assay": "Suppression of hypoxia-induced upregulation of MMP2 expression in human MDA-MB-231 cells at 1 nM measured after 24 hrs in presence of IGF-1 by Western blot analysis", "type": "functional, cell-based"}, "[8]": {"system": "MDA-MB-231", "assay": "Suppression of hypoxia-induced upregulation of MMP9 expression in human MDA-MB-231 cells at 0.25 to 1 mM by Western blot analysis", "type": "functional, cell-based", "settings": "dose 0.25-1 mM"}, "[9]": {"system": "MDA-MB-231", "assay": "Cytotoxicity against human MDA-MB-231 side population cells assessed as reduction in cell viability at 2 to 4 mM measured after 24 hrs under hypoxia condition by CCK-8 assay", "type": "functional, cell-based", "settings": "dose 2-4 mM"}, "[10]": {"system": "MDA-MB-231", "assay": "Inhibition of hypoxia-induced activation of PI3K/Akt/mTOR signaling in human MDA-MB-231 side population cells assessed as decrease in phosphorylated Akt level at 0.25 to 1 mM measured after 24 hrs by Western blot analysis", "settings": "dose 0.25-1 mM"}, "[11]": {"system": "MDA-MB-231", "assay": "Cytotoxicity against human MDA-MB-231 side population cells assessed as reduction in cell viability at 2 to 4 mM measured after 24 hrs under normoxia condition by CCK-8 assay", "type": "functional, cell-based", "settings": "dose 2-4 mM"}, "[12]": {"system": "MDA-MB-231", "assay": "Suppression of hypoxia-induced upregulation of MMP9 expression in human MDA-MB-231 side population cells at 0.25 to 1 mM by Western blot analysis", "type": "functional", "settings": "dose 0.25-1 mM"}, "[13]": {"system": "MDA-MB-231", "assay": "Suppression of hypoxia-induced upregulation of vimentin expression in human MDA-MB-231 side population cells at 0.25 to 1 mM by Western blot analysis", "type": "functional", "settings": "dose 0.25-1 mM"}, "[14]": {"system": "MCF7", "assay": "Cytotoxicity against human MCF7 cells assessed as reduction in cell viability at 0.25 to 1 mM measured after 24 hrs under hypoxia condition by CCK-8 assay", "type": "functional, cell-based", "settings": "dose 0.25-1 mM"}, "[15]": {"system": "MDA-MB-231", "assay": "Cytotoxicity against human MDA-MB-231 side population cells assessed as reduction in cell viability at 0.25 to 1 mM measured after 24 hrs by CCK-8 assay", "type": "functional, cell-based", "settings": "dose 0.25-1 mM"}, "[16]": {"system": "MDA-MB-231", "assay": "Inhibition of hypoxia-induced activation of PI3K/Akt/mTOR signaling in human MDA-MB-231 side population cells assessed as decrease in phosphorylated PI3K level at 0.25 to 1 mM measured after 24 hrs by Western blot analysis", "settings": "dose 0.25-1 mM"}, "[17]": {"system": "MCF7", "assay": "Cytotoxicity against human MCF7 side population cells assessed as reduction in cell viability at 2 to 4 mM measured after 24 hrs under hypoxia condition by CCK-8 assay", "type": "functional, cell-based", "settings": "dose 2-4 mM"}, "[18]": {"system": "MDA-MB-231", "assay": "Suppression of hypoxia-induced upregulation of N-cadherin expression in human MDA-MB-231 side population cells at 0.25 to 1 mM by Western blot analysis", "type": "functional", "settings": "dose 0.25-1 mM"}, "[19]": {"system": "MCF7", "assay": "Decrease in hypoxia-induced cell invasion in human MCF7 side population cells at 0.25 to 1 mM measured after measured after 24 hrs by crystal violet staining based transwell assay", "type": "functional", "settings": "dose 0.25-1 mM"}, "[20]": {"system": "MDA-MB-231", "assay": "Cytotoxicity against human MDA-MB-231 cells assessed as reduction in cell viability at 1 to 4 mM measured after 24 hrs under normoxia condition by CCK-8 assay", "type": "functional, cell-based", "settings": "dose 1-4 mM"}, "[21]": {"system": "MDA-MB-231", "assay": "Inhibition of hypoxia-induced activation of PI3K/Akt/mTOR signaling in human MDA-MB-231 side population cells at 1 nM measured after 24 hrs in presence of IGF-1 by Western blot analysis"}, "[22]": {"system": "MCF7", "assay": "Cytotoxicity against human MCF7 side population cells assessed as reduction in cell viability at 0.25 to 1 mM measured after 24 hrs under hypoxia condition by CCK-8 assay", "type": "functional, cell-based", "settings": "dose 0.25-1 mM"}, "[23]": {"system": "MDA-MB-231", "assay": "Suppression of hypoxia-induced upregulation of MMP9 expression in human MDA-MB-231 cells at 1 nM measured after 24 hrs in presence of IGF-1 by Western blot analysis", "type": "functional, cell-based"}, "[24]": {"system": "MDA-MB-231", "assay": "Inhibition of hypoxia-induced cell invasion in human MDA-MB-231 cells at 0.25 to 1 mM measured after measured after 24 hrs by crystal violet staining based transwell assay", "type": "functional", "settings": "dose 0.25-1 mM"}, "[25]": {"system": "MDA-MB-231", "assay": "Reversal of hypoxia-induced downregulation of E-cadherin expression in human MDA-MB-231 side population cells at 0.25 to 1 mM by Western blot analysis", "type": "functional", "settings": "dose 0.25-1 mM"}, "[26]": {"system": "MDA-MB-231", "assay": "Decrease in hypoxia-induced cell invasion in human MDA-MB-231 side population cells at 0.25 to 1 mM measured after measured after 24 hrs by crystal violet staining based transwell assay", "type": "functional", "settings": "dose 0.25-1 mM"}, "[27]": {"system": "MDA-MB-231", "assay": "Suppression of hypoxia-induced upregulation of N-cadherin expression in human MDA-MB-231 cells at 0.25 to 1 mM by Western blot analysis", "type": "functional, cell-based", "settings": "dose 0.25-1 mM"}, "[28]": {"system": "MDA-MB-231", "assay": "Cytotoxicity against human MDA-MB-231 cells assessed as reduction in cell viability at 0.25 to 1 mM measured after 24 hrs under hypoxia condition by CCK-8 assay", "type": "functional, cell-based", "settings": "dose 0.25-1 mM"}, "[29]": {"system": "MCF7", "assay": "Cytotoxicity against human MCF7 side population cells assessed as reduction in cell viability at 0.25 to 1 mM measured after 24 hrs by CCK-8 assay", "type": "functional, cell-based", "settings": "dose 0.25-1 mM"}, "[30]": {"system": "MDA-MB-231", "assay": "Reversal of hypoxia-induced downregulation of E-cadherin expression in human MDA-MB-231 cells at 0.25 to 1 mM by Western blot analysis", "type": "functional, cell-based", "settings": "dose 0.25-1 mM"}, "[31]": {"system": "MDA-MB-231", "assay": "Suppression of hypoxia-induced upregulation of vimentin expression in human MDA-MB-231 cells at 0.25 to 1 mM by Western blot analysis", "type": "functional, cell-based", "settings": "dose 0.25-1 mM"}, "[32]": {"system": "MCF7", "assay": "Inhibition of hypoxia-induced cell invasion in human MCF7 cells at 0.25 to 1 mM measured after measured after 24 hrs by crystal violet staining based transwell assay", "type": "functional", "settings": "dose 0.25-1 mM"}}, "note": "Calls of active or inactive are those of the source. The rule behind the calls is not given here.", "data": [{"smiles": "COC1=C[C@@H]2[C@@H]3Cc4ccc(OC)c(O)c4[C@]2(CCN3C)CC1=O", "values": [{"measurement": "Activity", "setting": "[1]", "result": "Active"}, {"measurement": "inhibition", "setting": "[2]", "result": "Active"}, {"measurement": "Activity", "setting": "[3]", "result": "Active"}, {"measurement": "Activity", "setting": "[4]", "result": "Active"}, {"measurement": "Activity", "setting": "[5]", "result": "Active"}, {"measurement": "Activity", "setting": "[6]", "result": "inactive"}, {"measurement": "Activity", "setting": "[7]", "result": "inactive"}, {"measurement": "Activity", "setting": "[8]", "result": "Active"}, {"measurement": "Activity", "setting": "[9]", "result": "Active"}, {"measurement": "inhibition", "setting": "[10]", "result": "Active"}, {"measurement": "Activity", "setting": "[11]", "result": "Active"}, {"measurement": "Activity", "setting": "[12]", "result": "Active"}, {"measurement": "Activity", "setting": "[13]", "result": "Active"}, {"measurement": "Activity", "setting": "[14]", "result": "inactive"}, {"measurement": "Activity", "setting": "[15]", "result": "inactive"}, {"measurement": "inhibition", "setting": "[16]", "result": "Active"}, {"measurement": "Activity", "setting": "[17]", "result": "Active"}, {"measurement": "Activity", "setting": "[18]", "result": "Active"}, {"measurement": "Activity", "setting": "[19]", "result": "Active"}, {"measurement": "Activity", "setting": "[20]", "result": "Active"}, {"measurement": "inhibition", "setting": "[21]", "result": "inactive"}, {"measurement": "Activity", "setting": "[22]", "result": "inactive"}, {"measurement": "Activity", "setting": "[23]", "result": "inactive"}, {"measurement": "inhibition", "setting": "[24]", "result": "Active"}, {"measurement": "Activity", "setting": "[25]", "result": "Active"}, {"measurement": "Activity", "setting": "[26]", "result": "Active"}, {"measurement": "Activity", "setting": "[27]", "result": "Active"}, {"measurement": "Activity", "setting": "[28]", "result": "inactive"}, {"measurement": "Activity", "setting": "[29]", "result": "inactive"}, {"measurement": "Activity", "setting": "[30]", "result": "Active"}, {"measurement": "Activity", "setting": "[31]", "result": "Active"}, {"measurement": "inhibition", "setting": "[32]", "result": "Active"}]}]}
